# Experimental data reported in patent US20240174690A1, “ANNULATED 2-AMINO-3-CYANO THIOPHENES AND DERIVATIVES FOR THE TREATMENT OF CANCER” (BOEHRINGER INGELHEIM INTERNATIONAL GMBH, priority 2021, published 2024).
# Tested on: Caco-2 cell monolayers
# Test: Caco-2 assay (permeability PappAB, PappBA, efflux ratio)
# Format: in vitro ADME
# Conditions: 10 μM test compound, pH 7.4
# Outline: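 Bidirectional permeability (apical-to-basolateral and reverse) through polarized Caco-2 monolayers, BSA 0.25% on each side, 37 °C. Donor and receiver sampled at 0-90 min after 25-30 min preincubation, analysed by HPLC/MS/MS. Apparent permeabilities derived from transfer rate normalised to area and t=0 donor concentration; ER taken as PappBA over PappAB.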
smiles,measurement,setting,value
C[C@H](Oc1cc(-n2ccc(C(=O)N[C@H]3CCOC3)n2)nc(-c2noc3c2CCC[C@@]32CCCc3sc(N)c(C#N)c32)n1)[C@@H]1CCCN1C [II-193],Caco PappAB,apical to basolateral,3.7e-06 cm/s
same,Caco ER,efflux ratio PappBA/PappAB,8.1
